In the assay the target is SARS2 protease (Severe acute respiratory syndrome coronavirus 2, UniProt P0DTD1). In words: SARS-CoV-2 protease inhibition assay (SARS2 FRET protease assay). The class given is biochemical. To be noted: SARS-CoV-2 protease 25 nM, FRET, peptide substrate 1.3 μM, 30 minutes at 30° C., compounds 20 μM to 1.0 nM; read-out: IC50.

The term IC50 denotes the point on the concentration scale where inhibition reaches its midpoint. On to `CC(=O)N1CCC2(CC1)C[C@@H](C[C@H](NC(=O)[C@H](CC1CCCCC1)NC(=O)c1cc3ccccc3[nH]1)C(=O)C(N)=O)C(=O)N2` [Compound C121, N—((S)-1-(((S)-1-((R)-8-acetyl-2-oxo-1,8-diazaspiro[4.5]decan-3-yl)-4-amino-3,4-dioxobutan-2-yl)amino)-3-cyclohexyl-1-oxopropan-2-yl)-1H-indole-2-carboxamide], for which the IC50 was found to be 178 nM.

On to `CC(C)(c1cccc(Cl)c1)C(OC(=O)N[C@@H](CC1CCCCC1)C(=O)N[C@@H](C[C@@H]1CCNC1=O)C(=O)C(N)=O)c1ccc2ccccc2c1` (stereo partly drawn) [Compound C122, 2-(3-Chlorophenyl)-2-methyl-1-(naphthalen-2-yl)propyl ((S)-1-(((S)-4-amino-3,4-dioxo-1-((S)-2-oxopyrrolidin-3-yl)butan-2-yl)amino)-3-cyclohexyl-1-oxopropan-2-yl)carbamate], for which the IC50 stood at 456 nM. `CC1(C)CC(CC(NC(=O)[C@H](CC2CCCCC2)NC(=O)c2cc3ccccc3[nH]2)C(=O)C(N)=O)C(=O)N1` (stereo partly drawn) [Compound C123, N-((2S)-1-((4-amino-1-(5,5-dimethyl-2-oxopyrrolidin-3-yl)-3,4-dioxobutan-2-yl)amino)-3-cyclohexyl-1-oxopropan-2-yl)-1H-indole-2-carboxamide]: the IC50 is 294 nM. Regarding `Cc1cccc(C(OC(=O)N[C@@H](CC2CCCCC2)C(=O)N[C@@H](C[C@@H]2CCNC2=O)C(=O)C(N)=O)C(C)(C)c2cccc(Cl)c2)c1` (stereo partly drawn) [Compound C124, 2-(3-chlorophenyl)-2-methyl-1-(m-tolyl)propyl ((S)-1-(((S)-4-amino-3,4-dioxo-1-((S)-2-oxopyrrolidin-3-yl)butan-2-yl)amino)-3-cyclohexyl-1-oxopropan-2-yl) carbamate], the IC50 was found to be 324 nM.

Turning to `CC(=O)N1CCC2(CC1)C[C@H](C[C@H](NC(=O)[C@H](CC1CCCCC1)NC(=O)c1cc3ccccc3[nH]1)C(=O)C(N)=O)C(=O)N2` [Compound C125, N—((S)-1-(((S)-1-((S)-8-acetyl-2-oxo-1,8-diazaspiro[4.5]decan-3-yl)-4-amino-3,4-dioxobutan-2-yl)amino)-3-cyclohexyl-1-oxopropan-2-yl)-1H-indole-2-carboxamide], the IC50 stood at 20.1 nM. As for `CC(=O)N1CCC2(CC1)CC(CC(NC(=O)[C@H](CC1CCCCC1)NC(=O)c1cc3cc(Cl)ccc3[nH]1)C(=O)C(N)=O)C(=O)N2` (stereo partly drawn) [Compound C126, N-((2S)-1-((1-(8-acetyl-2-oxo-1,8-diazaspiro[4.5]decan-3-yl)-4-amino-3,4-dioxobutan-2-yl)amino)-3-cyclohexyl-1-oxopropan-2-yl)-5-chloro-1H-indole-2-carboxamide], the concentration for half-maximal inhibition (IC50) was determined as 1190 nM. Consider `CC(C)(c1cccc(Cl)c1)C(OC(=O)N[C@@H](CC1CCCCC1)C(=O)N[C@H](C=O)C[C@@H]1CCNC1=O)c1ccc2ccccc2c1` (stereo partly drawn) [Compound C127], for which the IC50 stood at 3.6 nM.

Consider `CC(C)CN1C(=O)N[C@@H](C[C@@H]2CCNC2=O)C(O)N1C(=O)OCc1ccccc1` (stereo partly drawn) [Compound C129, Benzyl (5S)-6-hydroxy-2-isobutyl-3-oxo-5-(((S)-2-oxopyrrolidin-3-yl)methyl)-1,2,4-triazinane-1-carboxylate], for which the IC50 is greater than 20000 nM. Then `CC(C)(c1cccc(Cl)c1)C(OC(=O)N[C@@H](CC1CCCCC1)C(=O)N[C@@H](C[C@@H]1CCNC1=O)C(=O)C(N)=O)c1ccc2c(c1)CCC2` (stereo partly drawn) [Compound C131, 2-(3-Chlorophenyl)-1-(2,3-dihydro-1H-inden-5-yl)-2-methylpropyl ((S)-1-(((S)-4-amino-3,4-dioxo-1-((S)-2-oxopyrrolidin-3-yl)butan-2-yl)amino)-3-cyclohexyl-1-oxopropan-2-yl)carbamate], with 15800 nM. Then `CC(C)(c1cccc(Cl)c1)C(OC(=O)N[C@@H](CC1CCCCC1)C(=O)N[C@H](C=O)C[C@@H]1CCNC1=O)c1ccc2c(c1)CCC2` (stereo partly drawn) [Compound C132, 2-(3-Chlorophenyl)-1-(2,3-dihydro-1H-inden-5-yl)-2-methylpropyl ((S)-3-cyclohexyl-1-oxo-1-(((S)-1-oxo-3-((S)-2-oxopyrrolidin-3-yl)propan-2-yl)amino)propan-2-yl)carbamate], with 60 nM; and `COc1cccc2[nH]c(C(=O)N[C@@H](CC3CCCCC3)C(=O)NC(C=O)CC3CC4(CCN(C(C)=O)CC4)NC3=O)cc12` (stereo partly drawn) [Compound C133, N-((2S)-1-((1-(8-acetyl-2-oxo-1,8-diazaspiro[4.5]decan-3-yl)-3-oxopropan-2-yl)amino)-3-cyclohexyl-1-oxopropan-2-yl)-4-methoxy-1H-indole-2-carboxamide], with 0.0855 nM. In the case of `CC(C)(c1cccc(Cl)c1)C(OC(=O)N[C@@H](CC1CCCCC1)C(=O)N[C@@H](C[C@@H]1CCNC1=O)C(=O)C(N)=O)c1ccc(Cl)cc1` (stereo partly drawn) [Compound C134, 2-(3-Chlorophenyl)-1-(4-chlorophenyl)-2-methylpropyl ((S)-1-(((S)-4-amino-3,4-dioxo-1-((S)-2-oxopyrrolidin-3-yl)butan-2-yl)amino)-3-cyclohexyl-1-oxopropan-2-yl)carbamate], the IC50 was 767 nM. For the compound `CC(C)(c1cccc(Cl)c1)C(OC(=O)N[C@@H](CC1CCCCC1)C(=O)N[C@@H](C[C@@H]1CCNC1=O)C(=O)C(N)=O)c1ccc(F)cc1` (stereo partly drawn) [Compound C135, 2-(3-Chlorophenyl)-1-(4-fluorophenyl)-2-methylpropyl ((S)-1-(((S)-4-amino-3,4-dioxo-1-((S)-2-oxopyrrolidin-3-yl)butan-2-yl)amino)-3-cyclohexyl-1-oxopropan-2-yl) carbamate], the IC50 turned out to be 1890 nM. Regarding `Cc1cccc(C(OC(=O)N[C@@H](CC2CCCCC2)C(=O)N[C@H](C=O)C[C@@H]2CCNC2=O)C(C)(C)c2cccc(Cl)c2)c1` (stereo partly drawn) [Compound C136, 2-(3-Chlorophenyl)-2-methyl-1-(m-tolyl) propyl ((S)-3-cyclohexyl-1-oxo-1-(((S)-1-oxo-3-((S)-2-oxopyrrolidin-3-yl)propan-2-yl)amino)propan-2-yl) carbamate], the IC50 was determined as 0.45 nM. Consider `CC(C)(c1cccc(Cl)c1)C(OC(=O)N[C@@H](CC1CCCCC1)C(=O)N[C@H](C=O)C[C@@H]1CCNC1=O)c1ccc(F)cc1` (stereo partly drawn) [Compound C137, 2-(3-Chlorophenyl)-1-(4-fluorophenyl)-2-methylpropyl ((S)-3-cyclohexyl-1-oxo-1-(((S)-1-oxo-3-((S)-2-oxopyrrolidin-3-yl)propan-2-yl)amino)propan-2-yl) carbamate], for which the IC50 was 43.6 nM. Turning to `CC(C)C(=O)N1CCC2(CC1)CC(CC(NC(=O)[C@H](CC1CCCCC1)NC(=O)c1cc3ccccc3[nH]1)C(=O)C(N)=O)C(=O)N2` (stereo partly drawn) [Compound C138, N-((2S)-1-((4-amino-1-(8-isobutyryl-2-oxo-1,8-diazaspiro[4.5]decan-3-yl)-3,4-dioxobutan-2-yl)amino)-3-cyclohexyl-1-oxopropan-2-yl)-1H-indole-2-carboxamide], the IC50 is 245 nM. In the case of `CC(C)(C1CCCCC1)C(NC(=O)OCc1ccccc1)C(=O)N[C@H](C=O)C[C@@H]1CCNC1=O` (stereo partly drawn) [Compound C140, Benzyl (3-cyclohexyl-3-methyl-1-oxo-1-(((S)-1-oxo-3-((S)-2-oxopyrrolidin-3-yl)propan-2-yl)amino)butan-2-yl)carbamate], the IC50 was 405 nM. Consider `CC(=O)N1CCC2(CC1)CC(CC(C=O)NC(=O)[C@H](CC1CCCCC1)NC(=O)c1cc3cc(Cl)ccc3[nH]1)C(=O)N2` (stereo partly drawn) [Compound C141, N-((2S)-1-((1-(8-acetyl-2-oxo-1,8-diazaspiro[4.5]decan-3-yl)-3-oxopropan-2-yl)amino)-3-cyclohexyl-1-oxopropan-2-yl)-5-chloro-1H-indole-2-carboxamide], for which the IC50 worked out at 30.8 nM. As for `CC(C)(c1cccc(Cl)c1)C(OC(=O)N[C@@H](CC1CCCCC1)C(=O)N[C@H](C=O)C[C@@H]1CCNC1=O)c1ccc(Cl)cc1` (stereo partly drawn) [Compound C143, 2-(3-Chlorophenyl)-1-(4-chlorophenyl)-2-methylpropyl ((S)-3-cyclohexyl-1-oxo-1-(((S)-1-oxo-3-((S)-2-oxopyrrolidin-3-yl)propan-2-yl)amino)propan-2-yl) carbamate], the IC50 amounted to 3.6 nM.

As to `CC(C)(c1cccc(Cl)c1)C(OC(=O)N[C@@H](CC1CCCCC1)C(=O)N[C@@H](C[C@@H]1CCNC1=O)C(=O)C(=O)NC1CC1)c1ccc(F)cc1` (stereo partly drawn) [Compound C144, 2-(3-Chlorophenyl)-1-(4-fluorophenyl)-2-methylpropyl ((S)-3-cyclohexyl-1-(((S)-4-(cyclopropylamino)-3,4-dioxo-1-((S)-2-oxopyrrolidin-3-yl)butan-2-yl)amino)-1-oxopropan-2-yl) carbamate], the IC50 came out at 2020 nM. Regarding `CC(C)(c1cccc(Cl)c1)C(OC(=O)N[C@@H](CC1CCCCC1)C(=O)N[C@@H](C[C@@H]1CCNC1=O)C(=O)C(=O)NC1CC1)c1ccc(Cl)cc1` (stereo partly drawn) [Compound C145, 2-(3-Chlorophenyl)-1-(4-chlorophenyl)-2-methylpropyl ((S)-3-cyclohexyl-1-(((S)-4-(cyclopropylamino)-3,4-dioxo-1-((S)-2-oxopyrrolidin-3-yl)butan-2-yl)amino)-1-oxopropan-2-yl) carbamate], the IC50 stood at 4300 nM. For `O=C(N[C@@H](Cc1ccccc1)C(=O)N[C@@H](C[C@@H]1CCNC1=O)C(=O)C(=O)NC1CC1)OC1CCCC1Cc1cccc(Cl)c1` (stereo partly drawn) [Compound C146], the IC50 was greater than 20000 nM. Then `CC(C)C[C@H](NC(=O)OC(Cc1cccc(Cl)c1)c1ccccc1)C(=O)N[C@@H](C[C@@H]1CCNC1=O)C(=O)C(=O)NC1CC1` (stereo partly drawn) [Compound C147, 2-(3-Chlorophenyl)-1-phenylethyl ((S)-1-(((S)-4-(cyclopropylamino)-3,4-dioxo-1-((S)-2-oxopyrrolidin-3-yl)butan-2-yl)amino)-4-methyl-1-oxopentan-2-yl) carbamate], with 3000 nM; and `CC(C)(c1cccc(Cl)c1)C(OC(=O)N[C@@H](CC1CCCCC1)C(=O)N[C@@H](C[C@@H]1CCNC1=O)C(=O)C(=O)NC1CC1)c1ccccc1` (stereo partly drawn) [Compound C148, 2-(3-Chlorophenyl)-2-methyl-1-phenylpropyl ((S)-3-cyclohexyl-1-(((S)-4-(cyclopropylamino)-3,4-dioxo-1-((S)-2-oxopyrrolidin-3-yl)butan-2-yl)amino)-1-oxopropan-2-yl)carbamate], with 973 nM.

For the origin of these results see patent publication US20230159453A1 (COCRYSTAL PHARMA, INC., priority 2020, published 2023).
